Assay results from paper PMC4912633, “Direct evidence of the molecular basis for biological silicon transport” (Nature Communications, 2016).

Tests used:
[1] = biological target: T1, PtSIT1 (Phaeodactylum tricornutum, UniProt B7T1F4); assay: biochemical
T1 construct: gene SIT1

[2] = biological target: T2, PtSIT1 (Phaeodactylum tricornutum, UniProt B7T1F4, Q104A); assay: biochemical
T2 construct: gene SIT1

[3] = biological target: T3, PtSIT1 (Phaeodactylum tricornutum, UniProt B7T1F4, Q321A); assay: biochemical
T3 construct: gene SIT1
T3 sequence (B7T1F4 1-512 Q321A): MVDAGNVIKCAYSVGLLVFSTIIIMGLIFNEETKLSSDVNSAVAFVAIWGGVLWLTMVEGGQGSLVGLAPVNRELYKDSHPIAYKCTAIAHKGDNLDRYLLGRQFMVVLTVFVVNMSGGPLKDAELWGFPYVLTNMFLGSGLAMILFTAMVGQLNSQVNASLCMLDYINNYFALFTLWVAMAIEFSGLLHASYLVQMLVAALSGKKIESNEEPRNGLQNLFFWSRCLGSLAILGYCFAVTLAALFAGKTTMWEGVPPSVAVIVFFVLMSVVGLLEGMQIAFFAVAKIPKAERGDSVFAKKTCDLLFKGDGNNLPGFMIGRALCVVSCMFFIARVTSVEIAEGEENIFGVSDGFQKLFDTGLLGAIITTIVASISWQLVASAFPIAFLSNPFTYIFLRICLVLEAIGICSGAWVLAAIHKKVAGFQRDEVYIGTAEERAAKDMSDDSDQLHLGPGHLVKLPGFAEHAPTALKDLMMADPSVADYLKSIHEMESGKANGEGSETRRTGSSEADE

[4] = substrate: O[Si](O)(O)O; assay: purified protein; details: inward Na+ gradient (150 mM NaCl outside), valinomycin, 50 mM Tris, 150 mM KCl inside, pH 7.4, error s.e.m. of fit

T2 sequence (B7T1F4 1-512 Q104A): as the sequence (B7T1F4 1-512 Q321A) above, with Q104A, A321Q counted along it

Row | Molecule | Kd [1] [µM] | Kd [2] [µM] | Kd [3] [µM] | Km [4] [µM]
1 | O[Si](O)(O)O [silicic acid] | 2.9 ± 2.3 | 25.5 ± 11 | 13.3 ± 8 | –
2 | PtSIT1 (Phaeodactylum tricornutum) (protein) MVDAGNVIKCAYSVGLLVFSTIIIMGLIFNEETKLSSDVNSAVAFVAIWGGVLWLTMVEGGQGSLVGLAPVNRELYKDSHPIAYKCTAIAHKGDNLDRYLLGRQFMVVLTVFVVNMSGGPLKDAELWGFPYVLTNMFLGSGLAMILFTAMVGQLNSQVNASLCMLDYINNYFALFTLWVAMAIEFSGLLHASYLVQMLVAALSGKKIESNEEPRNGLQNLFFWSRCLGSLAILGYCFAVTLAALFAGKTTMWEGVPPSVAVIVFFVLMSVVGLLEGMQIAFFAVAKIPKAERGDSVFAKKTCDLLFKGDGNNLPGFMIGRQLCVVSCMFFIARVTSVEIAEGEENIFGVSDGFQKLFDTGLLGAIITTIVASISWQLVASAFPIAFLSNPFTYIFLRICLVLEAIGICSGAWVLAAIHKKVAGFQRDEVYIGTAEERAAKDMSDDSDQLHLGPGHLVKLPGFAEHAPTALKDLMMADPSVADYLKSIHEMESGKANGEGSETRRTGSSEADE | – | – | – | 19.1 ± 4.5
